PMC10303363, “Synthesis and Preclinical Evaluation of Novel ^68Ga-Labeled (R)-Pyrrolidin-2-yl-boronic Acid-Based PET Tracers for Fibroblast Activation Protein-Targeted Cancer Imaging” (Pharmaceuticals, 2023)
Values joined by “and” are separate entries in the source; they are usually repeats but may differ in a detail not shown here. Equal values may be shown once.

Key:
[1] = tested on: HEK-mFAP murine tumor model; design: method as in doi:10.1158/1538-7445.AM2022-3303; details: single dose; cited from earlier work
[2] = tested on: tumor; design: method as in doi:10.1158/1538-7445.AM2022-3303; details: up to 168 h pi; cited from earlier work
[3] = tested on: FAP; details: cited from earlier work
[4] = tested on: DPPs; details: cited from earlier work
[5] = tested on: PREP; details: cited from earlier work
[6] = tested on: HEK293T:hFAP tumor xenograft; experiment: PET/CT imaging; type: in vivo, mice; details: 1 h pi
Experimental: (§1) Imaging and biodistribution studies were performed using immunodeficient male NRG (NOD.Cg-Rag1tm1Mom Il2rgtm1Wjl/SzJ) mice following previously reported procedures. All experiments were conducted according to the guidelines established by the Canadian Council on Animal Care and approved by Animal Ethics Committee of the University of British Columbia. The mice were subcutaneously inoculated with 7.5 × 10^6 HEK293T:hFAP cells in the left dorsal flank. When the tumors grew to 6–8 mm in diameter, the mice were used for PET/CT imaging and biodistribution studies.
The PET/CT imaging experiments were carried out using a Siemens Inveon micro PET/CT scanner (Knoxville, TN, USA). Tumor-bearing mice were injected with ~4 to 6 MBq of ^68Ga-labeled tracer through a lateral caudal tail vein under 2.5% isoflurane in oxygen anesthesia, followed by recovery and free roaming in their cage during the uptake period. A 10 min localization CT scan was acquired using 3 overlapping positions to cover the entire mouse. The CT scan was used for the attenuation and scatter correction, and anatomical localization. A list mode acquisition was then performed for 15 min at 1 h pi with the mouse under isoflurane sedation. The images were reconstructed using 3D OSEM/MAP iterative methods.
(§2) For blocking studies, HEK293T:hFAP tumor-bearing mice were co-injected [^68Ga]Ga-SB04028 with an excess of FAPI-04 (0.5 mg/mouse) as a competitor. Imaging and biodistribution studies were performed at 1 h pi similar to the unblocked mice.

[7] = tested on: HEK293T:hFAP tumor-bearing mice; experiment: Ex vivo biodistribution study; type: in vivo; details: 1 h pi; for Adrenal Glands uptake / Blood uptake / Bone uptake / Brain uptake / Fat uptake / Heart uptake / Kidneys uptake / Large Intestines uptake / Liver uptake / Lungs uptake / Muscle uptake / Pancreas uptake / Small Intestine uptake / Spleen uptake / Stomach uptake / Testes uptake / Thyroid uptake / Tumor uptake / Tumor/Blood uptake ratio / Tumor/Bone uptake ratio / Tumor/Kidney uptake ratio / Tumor/Muscle uptake ratio: n = 4
Experimental: as §1
For the biodistribution studies, the mice were injected with ~1–2 MBq of the ^68Ga-labeled tracer, using the exact procedures as described above. At 1 h pi, the mice were euthanized by CO2 inhalation. Blood was withdrawn by a cardiac puncture, and the organs/tissues of interest were collected, weighed and counted using a Perkin Elmer (Waltham, MA, USA) Wizard2 2480 automatic gamma counter. The uptake values in percent of injected dose per gram of tissues (%ID/g) for the different tracers were calculated.
as §2

[8] = In vivo stability study (radio-HPLC of plasma and urine); design: species or system mice; details: male NRG mice, 15 min pi, n = 3
Experimental: In vivo stability studies were performed using healthy (non-tumor-bearing) male NRG mice following previously reported procedures. Briefly, [^68Ga]Ga-SB02055 (6.32 ± 0.16 MBq) and [^68Ga]Ga-SB04028 (9.90 ± 0.26 MBq) were injected via the lateral caudal vein into the mice (n = 3). At 15 min pi, the mice were sedated and euthanized, and urine and blood were collected. The blood was processed to obtain plasma by adding 0.5 mL of acetonitrile to 0.5–0.8 mL of whole blood, then vortexing and centrifuging the resulting mixture on a benchtop mini-centrifuge (Fisherbrand™ Mini-Centrifuge 100–240 V, 50/60 Hz Universal Plug) for 20 min. The supernatant was collected and filtered to give the blood plasma. The plasma and urine samples were analyzed via radio-HPLC by using the same conditions as those used for quality control of these ^68Ga-labeled radioligands.

[9] = tested on: bone and muscle; design: method as in PMID 30850501, PMID 32332144, PMID 33721173, PMID 23712432, PMID 34620730; details: mice; cited from earlier work
[10] = tested on: FAP; experiment: FAP inhibition reported by Jansen et al. (literature); type: biochemical; details: from literature IC50 values
[11] = HEK293T:hFAP tumor-bearing male NRG mice, unblocked
[12] = HEK293T:hFAP tumor-bearing mice, blocked: co-injected with FAPI-04 (0.5 mg/mouse)

SMILES: CC(NC(=O)c1ccc(CNC(=O)CN2CCN(CC(=O)[O-])CCN(CC(=O)[O-])CCN(CC(=O)[O-])CC2)cc1)C(=O)N1CCCC1B(O)O.[177Lu+3] (stereo not drawn) [[^177Lu]Lu-PNT6555]
- anti-tumor efficacy [1]: dose-dependent anti-tumor efficacy
- tumor retention [2]: > 10 %ID/g

SMILES: CC(NC(=O)c1ccnc2ccc(OCCCN3CCN(C(=O)CN4CCN(CC(=O)[O-])CCN(CC(=O)[O-])CCN(CC(=O)[O-])CC4)CC3)cc12)C(=O)N1CCCC1B(O)O.[68Ga+3] (stereo not drawn) [[^68Ga]Ga-SB04028]
- tumor uptake on PET/CT image upon co-injection with FAPI-04 ([6]; FAPI-04 0.5 mg/mouse): reduced the tumor uptake to the background level
- tumor on PET/CT image ([6]; HEK293T:hFAP tumor xenograft, unblocked): clear visualization
- reduction of average tumor uptake upon co-injection with FAPI-04 ([7]; FAPI-04 0.5 mg/mouse, HEK293T:hFAP tumor-bearing mice): ~ 97%
- Adrenal Glands uptake [7, 11]: 0.14 ± 0.10 %ID/g
- Blood uptake [7, 11]: 0.97 ± 0.03 %ID/g
- Bone uptake [7, 11]: 0.24 ± 0.09 %ID/g
- Brain uptake [7, 11]: 0.02 ± 0.00 %ID/g
- Fat uptake [7, 11]: 0.07 ± 0.01 %ID/g
- Heart uptake [7, 11]: 0.24 ± 0.02 %ID/g
- Kidneys uptake [7, 11]: 2.10 ± 0.33 %ID/g
- Large Intestines uptake [7, 11]: 0.13 ± 0.03 %ID/g
- Liver uptake [7, 11]: 0.32 ± 0.03 %ID/g
- Lungs uptake [7, 11]: 0.59 ± 0.04 %ID/g
- Muscle uptake [7, 11]: 0.13 ± 0.01 %ID/g
- Pancreas uptake [7, 11]: 0.18 ± 0.02 %ID/g
- Small Intestine uptake [7, 11]: 0.34 ± 0.02 %ID/g
- Spleen uptake [7, 11]: 0.25 ± 0.04 %ID/g
- Stomach uptake [7, 11]: 0.06 ± 0.01 %ID/g
- Testes uptake [7, 11]: 0.18 ± 0.02 %ID/g
- Thyroid uptake [7, 11]: 0.35 ± 0.00 %ID/g
- Tumor uptake [7, 11]: 10.1 ± 0.42 %ID/g
- Tumor/Blood uptake ratio [7, 11]: 10.4 ± 0.70
- Tumor/Bone uptake ratio [7, 11]: 48.1 ± 20.5
- Tumor/Kidney uptake ratio [7, 11]: 4.89 ± 0.72
- Tumor/Muscle uptake ratio [7, 11]: 79.9 ± 7.50
- fold higher tumor uptake compared to [68Ga]Ga-PNT6555 ([7]; HEK293T:hFAP tumor-bearing mice): ~ 1.5 fold and > 1.5 fold
- Adrenal Glands uptake [7, 12]: 0.09 ± 0.06 %ID/g
- Blood uptake [7, 12]: 0.49 ± 0.13 %ID/g
- Bone uptake [7, 12]: 0.01 ± 0.00 %ID/g
- Brain uptake [7, 12]: 0.02 ± 0.00 %ID/g
- Fat uptake [7, 12]: 0.14 ± 0.13 %ID/g
- Heart uptake [7, 12]: 0.11 ± 0.00 %ID/g
- Kidneys uptake [7, 12]: 2.53 ± 0.57 %ID/g
- Large Intestines uptake [7, 12]: 0.08 ± 0.03 %ID/g
- Liver uptake [7, 12]: 0.30 ± 0.05 %ID/g
- Lungs uptake [7, 12]: 0.78 ± 0.37 %ID/g
- Muscle uptake [7, 12]: 0.66 ± 0.12 %ID/g
- Pancreas uptake [7, 12]: 0.09 ± 0.02 %ID/g
- Small Intestine uptake [7, 12]: 0.34 ± 0.04 %ID/g
- Spleen uptake [7, 12]: 0.18 ± 0.02 %ID/g
- Stomach uptake [7, 12]: 0.03 ± 0.00 %ID/g
- Testes uptake [7, 12]: 0.12 ± 0.01 %ID/g
- Thyroid uptake [7, 12]: 0.14 ± 0.01 %ID/g
- Tumor uptake [7, 12]: 0.30 ± 0.04 %ID/g
- Tumor/Blood uptake ratio [7, 12]: 0.63 ± 0.09
- Tumor/Bone uptake ratio [7, 12]: 33.9 ± 13.3
- Tumor/Kidney uptake ratio [7, 12]: 0.12 ± 0.03
- Tumor/Muscle uptake ratio [7, 12]: 0.46 ± 0.06
- fraction of tracer remaining intact in plasma [8]: 46.6 ± 0.21%
- fraction of tracer remaining intact in urine [8]: 53.6 ± 7.11% and > 54%

SMILES: N#C[C@@H]1CC(F)(F)CN1C(=O)CNC(=O)c1ccnc2ccc(OCCCN3CCN(C(=O)CN4CCN(CC(=O)[O-])CCN(CC(=O)[O-])CCN(CC(=O)[O-])CC4)CC3)cc12.[68Ga+3] [[^68Ga]Ga-FAPI-04]
- uptake in the bone and muscle [9]: high uptake

SMILES: O=C(NCC(=O)N1CCC[C@H]1B(O)O)c1ccnc2ccccc12 [N-(4-quinolinoyl)-Gly-boroPro]
- IC50 [3]: 3.7 ± 0.2 nM
- selectivity over DPPs [4]: > 10^3
- fold higher FAP binding affinity than N-(4-quinolinoyl)-Gly-(2-cyanopyrrolidine) [10]: 2.8 fold
- selectivity over PREP [5]: ~ 3 fold
